Data set [1] addresses Pepsin A (Homo sapiens, UniProt P0DJD9). The data set can be described thus: Inhibition of pepsin A (unknown origin).
For data set [2], the target named is Cytochrome P450 3A4 (Homo sapiens, UniProt P08684). The data set can be described thus: Inhibition of CYP3A4 (unknown origin) using 7-benzyl-4-trifluoromethylcoumarin as fluorometric substrate. In kind it is ADME.
Data set [3] concerns the target Mu-type opioid receptor (Homo sapiens, UniProt P35372). The data set can be described thus: Inhibition of mu opioid receptor (unknown origin).
The test system of data set [4] is Rattus norvegicus. The data set can be described thus: AUC (0 to 24 hrs) in cannulated fed Sprague-Dawley rat at 6 mg/kg, po. In kind it is ADME, organism-based, Plasma. On the set-up: time < 24 hr, dose 6 mg/kg, route oral. The note with it: in vivo.
Data set [5] addresses T1, Alpha-1A adrenergic receptor (Homo sapiens, UniProt P35348).
T1 sequence (P35348 whole entry): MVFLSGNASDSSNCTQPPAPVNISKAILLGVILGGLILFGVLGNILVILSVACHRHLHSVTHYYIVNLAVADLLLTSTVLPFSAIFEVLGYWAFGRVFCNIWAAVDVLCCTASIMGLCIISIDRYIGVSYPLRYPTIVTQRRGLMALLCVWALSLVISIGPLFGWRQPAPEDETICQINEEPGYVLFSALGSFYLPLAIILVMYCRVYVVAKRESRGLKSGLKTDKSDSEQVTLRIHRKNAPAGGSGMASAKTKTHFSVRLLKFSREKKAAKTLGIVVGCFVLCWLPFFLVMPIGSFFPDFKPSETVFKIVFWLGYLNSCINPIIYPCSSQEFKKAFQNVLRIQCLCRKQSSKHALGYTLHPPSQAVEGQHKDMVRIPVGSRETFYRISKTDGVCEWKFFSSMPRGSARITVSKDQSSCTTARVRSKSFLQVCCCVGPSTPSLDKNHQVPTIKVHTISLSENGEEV
The data set can be described thus: Inhibition of alpha-adrenoceptor 1A (unknown origin).

Data set [6] concerns the target T2, Renin (Homo sapiens, UniProt P00797).
T2 sequence (P00797 whole entry): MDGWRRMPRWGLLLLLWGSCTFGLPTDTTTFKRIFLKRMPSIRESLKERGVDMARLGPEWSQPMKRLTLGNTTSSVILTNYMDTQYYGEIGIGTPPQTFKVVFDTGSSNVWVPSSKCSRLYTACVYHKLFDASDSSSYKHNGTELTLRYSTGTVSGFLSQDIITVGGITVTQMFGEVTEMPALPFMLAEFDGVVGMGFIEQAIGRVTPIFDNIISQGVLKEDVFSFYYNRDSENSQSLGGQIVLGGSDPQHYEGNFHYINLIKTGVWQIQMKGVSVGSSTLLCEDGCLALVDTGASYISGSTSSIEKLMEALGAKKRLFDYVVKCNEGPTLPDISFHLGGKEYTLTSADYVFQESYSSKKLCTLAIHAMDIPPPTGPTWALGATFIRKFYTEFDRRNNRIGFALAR
The data set can be described thus: Inhibition of human recombinant renin by TR-FRET assay.

Data set [7] deals with Cytochrome P450 2C9 (Homo sapiens, UniProt P11712). The data set can be described thus: Inhibition of CYP2C9 (unknown origin). It counts as ADME.
Data set [8] can be described thus: Cmax in cannulated fed Sprague-Dawley rat at 6 mg/kg, po. It counts as ADME, organism-based. Also on record: dose 6 mg/kg, route oral. The note with it: in vivo.
A short description of data set [9]: Half life in cannulated fed Sprague-Dawley rat at 2 mg/kg, iv. The following applies: in vivo. On the set-up: dose 2 mg/kg, route intravenous. It counts as ADME, organism-based.
A short description of data set [10]: Solubility in aqueous buffer at pH 6.8. It counts as physicochemical.
Data set [11] deals with Phosphodiesterase 3 (Homo sapiens, UniProt Q14432+Q13370). The data set can be described thus: Inhibition of PDE3 (unknown origin). It counts as protein assay.
Data set [12] deals with Cathepsin D (Homo sapiens, UniProt P07339). The data set can be described thus: Inhibition of cathepsin D (unknown origin).
Data set [13] addresses T3, Gastricsin (Homo sapiens, UniProt P20142).
T3 sequence (P20142 whole entry): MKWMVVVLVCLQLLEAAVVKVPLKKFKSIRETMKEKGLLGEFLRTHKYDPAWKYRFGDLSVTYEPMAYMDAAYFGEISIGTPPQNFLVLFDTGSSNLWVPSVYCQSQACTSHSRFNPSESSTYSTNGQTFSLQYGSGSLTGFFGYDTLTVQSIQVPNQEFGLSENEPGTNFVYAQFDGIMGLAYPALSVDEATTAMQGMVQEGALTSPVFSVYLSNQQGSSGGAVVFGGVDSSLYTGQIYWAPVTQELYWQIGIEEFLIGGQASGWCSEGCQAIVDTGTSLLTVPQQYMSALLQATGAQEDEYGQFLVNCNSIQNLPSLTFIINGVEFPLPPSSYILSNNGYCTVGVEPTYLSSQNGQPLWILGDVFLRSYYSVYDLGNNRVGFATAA
The data set can be described thus: Inhibition of pepsin C (unknown origin).

Sequence of Cytochrome P450 2C9 (P11712 whole entry): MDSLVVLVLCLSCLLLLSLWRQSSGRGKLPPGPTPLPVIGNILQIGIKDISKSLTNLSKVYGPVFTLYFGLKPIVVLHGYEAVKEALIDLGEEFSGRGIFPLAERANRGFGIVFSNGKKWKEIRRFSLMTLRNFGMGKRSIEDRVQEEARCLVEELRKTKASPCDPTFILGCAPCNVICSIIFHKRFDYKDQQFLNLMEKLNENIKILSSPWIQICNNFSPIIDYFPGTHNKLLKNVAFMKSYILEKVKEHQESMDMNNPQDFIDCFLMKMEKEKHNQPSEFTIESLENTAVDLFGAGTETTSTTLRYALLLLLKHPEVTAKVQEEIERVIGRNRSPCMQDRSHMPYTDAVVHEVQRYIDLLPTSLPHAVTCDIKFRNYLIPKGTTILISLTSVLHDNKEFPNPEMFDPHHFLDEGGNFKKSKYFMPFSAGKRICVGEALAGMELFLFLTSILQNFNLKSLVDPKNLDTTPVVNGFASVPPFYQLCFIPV
Sequence of Pepsin A (P0DJD9 whole entry): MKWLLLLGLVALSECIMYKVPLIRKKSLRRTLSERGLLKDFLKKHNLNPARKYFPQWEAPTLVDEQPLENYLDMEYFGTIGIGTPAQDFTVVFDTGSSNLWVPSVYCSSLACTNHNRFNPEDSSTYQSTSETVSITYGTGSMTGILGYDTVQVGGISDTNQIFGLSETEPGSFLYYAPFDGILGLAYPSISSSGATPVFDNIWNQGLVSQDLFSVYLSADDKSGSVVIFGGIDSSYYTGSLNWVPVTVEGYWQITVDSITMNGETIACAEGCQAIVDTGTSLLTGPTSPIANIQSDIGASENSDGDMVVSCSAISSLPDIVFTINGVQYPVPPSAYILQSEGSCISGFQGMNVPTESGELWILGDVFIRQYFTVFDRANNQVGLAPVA
Sequence of Cathepsin D (P07339 65-162 limits assumed): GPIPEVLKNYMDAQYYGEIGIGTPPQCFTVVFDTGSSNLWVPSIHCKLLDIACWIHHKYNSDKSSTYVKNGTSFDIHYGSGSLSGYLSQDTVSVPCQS
Sequence of Cathepsin D (P07339 169-412 limits assumed): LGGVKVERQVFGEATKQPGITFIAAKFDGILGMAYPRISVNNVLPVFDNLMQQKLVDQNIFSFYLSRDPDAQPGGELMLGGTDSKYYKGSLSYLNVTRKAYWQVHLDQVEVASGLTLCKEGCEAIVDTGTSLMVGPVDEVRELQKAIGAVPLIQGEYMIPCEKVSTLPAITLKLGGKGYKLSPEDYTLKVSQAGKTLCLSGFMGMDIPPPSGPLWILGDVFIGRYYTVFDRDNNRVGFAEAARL
Sequence of Cytochrome P450 3A4 (P08684 whole entry): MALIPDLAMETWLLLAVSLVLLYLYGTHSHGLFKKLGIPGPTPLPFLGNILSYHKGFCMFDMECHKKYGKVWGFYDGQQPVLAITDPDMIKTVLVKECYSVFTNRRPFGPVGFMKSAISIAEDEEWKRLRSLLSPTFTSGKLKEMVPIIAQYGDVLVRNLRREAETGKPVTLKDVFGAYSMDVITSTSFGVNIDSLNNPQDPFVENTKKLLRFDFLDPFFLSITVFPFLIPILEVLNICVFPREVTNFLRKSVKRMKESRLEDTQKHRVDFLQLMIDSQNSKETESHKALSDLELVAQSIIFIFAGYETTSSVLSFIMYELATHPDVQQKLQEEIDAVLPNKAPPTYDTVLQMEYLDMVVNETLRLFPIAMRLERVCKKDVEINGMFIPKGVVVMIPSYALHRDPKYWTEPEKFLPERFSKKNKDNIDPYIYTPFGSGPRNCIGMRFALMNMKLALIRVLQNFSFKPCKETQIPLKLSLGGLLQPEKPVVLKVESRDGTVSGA
Sequence of Mu-type opioid receptor (P35372 whole entry): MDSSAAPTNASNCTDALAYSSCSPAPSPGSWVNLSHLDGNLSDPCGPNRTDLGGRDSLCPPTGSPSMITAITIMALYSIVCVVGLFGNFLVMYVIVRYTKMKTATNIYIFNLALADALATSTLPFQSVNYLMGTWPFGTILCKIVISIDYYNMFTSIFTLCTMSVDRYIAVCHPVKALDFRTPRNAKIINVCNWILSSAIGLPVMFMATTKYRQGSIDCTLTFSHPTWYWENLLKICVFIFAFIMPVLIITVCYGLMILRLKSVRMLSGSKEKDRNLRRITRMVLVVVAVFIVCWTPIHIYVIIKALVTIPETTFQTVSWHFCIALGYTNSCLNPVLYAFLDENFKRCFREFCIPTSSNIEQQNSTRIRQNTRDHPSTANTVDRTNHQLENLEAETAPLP

`COCCCOc1cc(C(=O)N(C[C@@H]2CNC[C@H]2OC(=O)NCc2ccccc2)C(C)C)ccc1OC`: the IC50 in data set [1] is above 30 µM; in data set [2], 4 µM; in data set [3] it was 1 µM; in [5] it was 0.5 µM; in [6] it was 0.04 µM; in [7], above 20 µM. Moreover, the IC50 in [11] was 1 µM; in [12], above 30 µM; in data set [13], above 30 µM. Also, the AUC in [4] was 0.468 µM·h. The Cmax in data set [8] amounted to 1020 nM. The half-life in [9] is 2.2 h. The compound also showed a solubility in [10] above 1000 µM.

The values above are taken from ChEMBL document CHEMBL3400053, “trans-3,4-Disubstituted pyrrolidines as inhibitors of the human aspartyl protease renin. Part II: prime site exploration using an oxygen linker” (Bioorg Med Chem Lett, 2015).
